In patent US11084798B1, “2-oxoquinazoline derivatives as methionine adenosyltransferase 2A inhibitors” (IDEAYA BIOSCIENCES, INC., priority 2018, dated 2021):

Target: hMAT2A (Homo sapiens (Human), UniProt P31153)
Test: Malachite Green Assay (MAT2A enzyme inhibition)
Format: biochemical
Conditions: hMAT2A 50 nM, substrates 500 uM each
Method: The ability of the compound of present disclosure to inhibit MAT2A enzyme was determined using the Malachite Green or Phosphate Sensor Fluorescence Assay described below.
L-methionine Substrate: Alfa Aesar catalog #J61904
ATP Substrate: Alfa Aesar cat #J60336
Malachite Green Detection Reagent: Millipore Sigma catalog #MAK307-1KT
Assay buffer: 50 mM Tris, pH 7.5/50 mM KCl/10 mM MgCl2/0.01% Brij-35/1 mM DTT/0.1% BGG
The plate was centrifuged at 1000 rpm for 1 minute and then incubated at room temperature for 1 hour. 5 μL of malachite green detection reagent was added to all the test wells and the plate was centrifuged at 1000 rpm for 1 minute and then incubated at room temperature for 30 minutes. The plate was read for absorbance at 620 nm on a plate reader (e.g., Infinite M1000).

hMAT2A, sequence (P31153 whole entry): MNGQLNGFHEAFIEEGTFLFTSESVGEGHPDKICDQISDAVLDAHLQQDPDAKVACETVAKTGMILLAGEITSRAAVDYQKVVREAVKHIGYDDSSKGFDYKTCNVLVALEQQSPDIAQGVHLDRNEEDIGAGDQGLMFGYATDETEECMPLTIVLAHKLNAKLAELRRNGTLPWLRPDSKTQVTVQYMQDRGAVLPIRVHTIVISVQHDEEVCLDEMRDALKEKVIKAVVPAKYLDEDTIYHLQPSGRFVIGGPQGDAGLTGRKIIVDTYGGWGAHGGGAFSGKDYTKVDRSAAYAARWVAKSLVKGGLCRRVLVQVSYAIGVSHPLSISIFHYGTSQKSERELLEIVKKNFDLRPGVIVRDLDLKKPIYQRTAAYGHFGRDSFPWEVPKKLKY

## 7-chloro-4-(dimethylamino)-1-(3-(2-phenoxyethyl)phenyl)quinazolin-2(1H)-one [Example 10]
  IC50: 200 to 500 nM
